Laboratory results as given in article PMC3553014, “Albumin Stimulates the Activity of the Human UDP-Glucuronosyltransferases 1A7, 1A8, 1A10, 2A1 and 2B15, but the Effects Are Enzyme and Substrate Dependent” (PLoS ONE, 2013).
Like-named read-outs stand apart in the source and are kept apart here. Values belong to the compound of their own block, whether it stands above or below them.

Columns and labels:
UGT2A1 = target: T1, UGT2A1 (Homo sapiens, UniProt P0DTE4); test: UGT2A1-catalyzed glucuronidation, enzyme kinetics; details: 0.1% BSA vs no BSA
T1 sequence (P0DTE4 21-527): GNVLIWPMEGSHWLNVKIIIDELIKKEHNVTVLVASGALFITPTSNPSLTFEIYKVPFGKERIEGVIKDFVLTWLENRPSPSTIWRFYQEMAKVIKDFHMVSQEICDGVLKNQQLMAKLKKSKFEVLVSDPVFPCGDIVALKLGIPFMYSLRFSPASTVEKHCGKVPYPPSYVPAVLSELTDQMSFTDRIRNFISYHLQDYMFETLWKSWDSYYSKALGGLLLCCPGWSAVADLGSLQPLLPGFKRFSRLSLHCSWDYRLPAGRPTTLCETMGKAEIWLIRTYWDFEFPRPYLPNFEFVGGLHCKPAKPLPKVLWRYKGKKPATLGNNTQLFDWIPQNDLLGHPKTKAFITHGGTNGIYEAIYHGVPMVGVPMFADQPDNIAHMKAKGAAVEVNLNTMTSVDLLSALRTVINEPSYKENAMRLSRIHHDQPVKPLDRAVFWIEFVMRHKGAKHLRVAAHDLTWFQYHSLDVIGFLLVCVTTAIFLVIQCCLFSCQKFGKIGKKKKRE
Procedure: (§1) Recombinant human UGTs 1A1, 1A6, 1A7, 1A8, 1A10, 2A1, 2B4, 2B7 and 2B17 were expressed as His-tagged proteins in baculovirus-infected insect cells as described previously [14]. […] Protein concentrations were determined by the BCA method (Pierce Biotechnology, Rockford, IL, USA).
(§2) The protein concentrations and incubation times for the enzyme kinetic assays were selected based on preliminary assays in order to ensure that the product formation was within the linear range with respect to both protein concentration and time, and that the substrate consumption during the reaction was less than 10%. The initial velocity measurements were performed in either duplicates or triplicates and they are presented as the average values and S.E.
(§3) The glucuronidation rates by recombinant enzymes are reported as “expression normalized” values. The relative expression level of each recombinant UGT that was produced in our laboratory was determined using immunoblotting, as previously described [14], [19]. The dot blot assays were performed in triplicate and the average value was used for normalization. […] The “expression normalized” glucuronidation rates were calculated by dividing the measured glucuronidation rates with relative expression level of the each given recombinant UGT.
(§4) In assays containing BSA, the total concentrations of substrate were corrected according to the measured drug binding to BSA, under the specific conditions of each glucuronidation assay. The statistical significance of the difference in enzyme kinetics parameters upon BSA addition was tested with extra sum-of-squares F-test (included in the GraphPad software, [20]. The initial glucuronidation rates were fitted to the following equations:

[1] = tested on: UGT1A9 expressed in Sf9 insect cells; details: darexaban glucuronidation; cited from earlier work
UGT1A7 = target: T2, UGT1A7 (Homo sapiens, UniProt Q9HAW7); test: UGT1A7-catalyzed glucuronidation, enzyme kinetics; assay type: in vitro ADME
T2 construct: His-tag; made in house; host or cells: baculovirus-infected insect cells (Sf9)
T2 sequence (Q9HAW7 26-530): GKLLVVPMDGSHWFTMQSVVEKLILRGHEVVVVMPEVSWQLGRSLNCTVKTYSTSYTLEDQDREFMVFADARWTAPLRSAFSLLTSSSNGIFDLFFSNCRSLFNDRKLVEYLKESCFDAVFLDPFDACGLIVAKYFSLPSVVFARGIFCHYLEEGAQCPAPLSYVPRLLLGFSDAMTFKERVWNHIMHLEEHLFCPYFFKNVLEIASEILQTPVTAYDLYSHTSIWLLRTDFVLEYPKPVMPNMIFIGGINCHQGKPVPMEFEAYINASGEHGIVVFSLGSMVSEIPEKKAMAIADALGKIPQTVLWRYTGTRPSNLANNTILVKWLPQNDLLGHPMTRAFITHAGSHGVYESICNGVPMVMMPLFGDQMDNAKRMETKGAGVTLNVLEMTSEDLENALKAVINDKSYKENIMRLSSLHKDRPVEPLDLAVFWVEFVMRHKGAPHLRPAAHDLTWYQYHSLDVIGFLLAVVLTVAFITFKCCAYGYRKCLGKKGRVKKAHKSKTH
Procedure: (§5) Protein concentrations were determined by the BCA method (Pierce Biotechnology, Rockford, IL, USA).
as §2
The glucuronidation rates by recombinant enzymes are reported as “expression normalized” values. […] The “expression normalized” glucuronidation rates were calculated by dividing the measured glucuronidation rates with relative expression level of the each given recombinant UGT.
The enzyme kinetic parameters were obtained by fitting kinetic models to the experimental data using GraphPad Prism version 5.04 for Windows (GraphPad Software Inc., San Diego, CA, USA).

UGT1A6 = target: T3, UGT1A6 (Homo sapiens, UniProt P19224); test: UGT1A6-catalyzed glucuronidation, enzyme kinetics; details: No BSA; expression level-normalized
T3 sequence (P19224 27-532): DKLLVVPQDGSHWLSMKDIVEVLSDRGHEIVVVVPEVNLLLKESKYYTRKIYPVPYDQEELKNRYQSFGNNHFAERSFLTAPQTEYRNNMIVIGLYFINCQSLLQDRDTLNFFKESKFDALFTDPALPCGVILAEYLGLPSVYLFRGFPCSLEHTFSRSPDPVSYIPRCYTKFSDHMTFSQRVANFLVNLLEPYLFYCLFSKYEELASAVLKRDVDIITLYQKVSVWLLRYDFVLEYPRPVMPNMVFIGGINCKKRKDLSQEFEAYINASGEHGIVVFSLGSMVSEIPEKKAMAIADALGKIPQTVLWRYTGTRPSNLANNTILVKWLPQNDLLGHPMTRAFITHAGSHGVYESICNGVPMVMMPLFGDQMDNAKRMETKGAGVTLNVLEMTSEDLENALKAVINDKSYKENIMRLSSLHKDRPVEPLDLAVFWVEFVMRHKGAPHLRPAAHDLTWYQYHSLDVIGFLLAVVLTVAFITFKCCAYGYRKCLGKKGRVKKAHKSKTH
Procedure: as §1, §2, §3, §4

[2] = Nonspecific binding to the RED device; details: rapid equilibrium dialysis
BSA = BSA (Bos taurus, UniProt P02769); test: in vitro; details: bovine
UGT1A10 = target: T4, UGT1A10 (Homo sapiens, UniProt Q9HAW8); test: UGT1A10-catalyzed glucuronidation, enzyme kinetics; assay type: in vitro ADME; details: No BSA; expression level-normalized; estradiols: 3-glucuronide formation
T4 construct: His-tag; made in house; host or cells: baculovirus-infected insect cells (Sf9)
T4 sequence (Q9HAW8 26-530): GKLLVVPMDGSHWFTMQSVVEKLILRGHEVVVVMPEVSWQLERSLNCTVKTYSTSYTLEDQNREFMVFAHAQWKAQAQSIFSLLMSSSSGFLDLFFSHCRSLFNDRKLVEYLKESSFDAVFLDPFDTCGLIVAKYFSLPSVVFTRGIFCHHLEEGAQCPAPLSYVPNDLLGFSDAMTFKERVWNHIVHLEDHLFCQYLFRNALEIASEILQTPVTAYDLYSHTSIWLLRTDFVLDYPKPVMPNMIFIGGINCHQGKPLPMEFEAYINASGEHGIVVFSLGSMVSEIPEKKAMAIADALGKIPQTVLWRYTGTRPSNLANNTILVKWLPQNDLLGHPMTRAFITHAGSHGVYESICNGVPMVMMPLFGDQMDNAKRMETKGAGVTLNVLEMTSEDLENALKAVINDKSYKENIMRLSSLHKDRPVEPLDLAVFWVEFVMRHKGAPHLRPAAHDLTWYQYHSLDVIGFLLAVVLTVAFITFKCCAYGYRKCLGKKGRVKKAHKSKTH
Procedure: as §1, §2
The glucuronidation rates by recombinant enzymes are reported as “expression normalized” values. The relative expression level of each recombinant UGT that was produced in our laboratory was determined using immunoblotting, as previously described [14], [19]. […] The “expression normalized” glucuronidation rates were calculated by dividing the measured glucuronidation rates with relative expression level of the each given recombinant UGT.
In assays containing BSA, the total concentrations of substrate were corrected according to the measured drug binding to BSA, under the specific conditions of each glucuronidation assay.

UGT2B15 = target: T5, UGT2B15 (Homo sapiens, UniProt P54855)
T5 sequence (P54855 24-530): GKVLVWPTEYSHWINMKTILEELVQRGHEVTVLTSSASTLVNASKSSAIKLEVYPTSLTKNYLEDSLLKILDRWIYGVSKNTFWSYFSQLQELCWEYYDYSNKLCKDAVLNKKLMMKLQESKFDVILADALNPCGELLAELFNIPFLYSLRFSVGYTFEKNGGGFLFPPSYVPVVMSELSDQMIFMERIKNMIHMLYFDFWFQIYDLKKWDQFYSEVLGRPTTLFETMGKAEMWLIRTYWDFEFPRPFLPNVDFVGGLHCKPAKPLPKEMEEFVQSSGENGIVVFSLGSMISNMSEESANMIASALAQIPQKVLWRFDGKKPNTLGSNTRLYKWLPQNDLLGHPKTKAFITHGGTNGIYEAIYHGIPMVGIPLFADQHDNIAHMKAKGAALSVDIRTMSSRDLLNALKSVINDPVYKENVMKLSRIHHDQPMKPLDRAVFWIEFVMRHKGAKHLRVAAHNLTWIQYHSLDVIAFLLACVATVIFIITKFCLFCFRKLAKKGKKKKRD
Procedure: as §1, §2, §3, §4

UGT1A1 [3] = target: T6, UGT1A1 (Homo sapiens, UniProt P22309); test: UGT1A1-catalyzed glucuronidation, enzyme kinetics; details: No BSA; expression level-normalized; estradiols: 3-glucuronide formation
T6 sequence (P22309 26-533): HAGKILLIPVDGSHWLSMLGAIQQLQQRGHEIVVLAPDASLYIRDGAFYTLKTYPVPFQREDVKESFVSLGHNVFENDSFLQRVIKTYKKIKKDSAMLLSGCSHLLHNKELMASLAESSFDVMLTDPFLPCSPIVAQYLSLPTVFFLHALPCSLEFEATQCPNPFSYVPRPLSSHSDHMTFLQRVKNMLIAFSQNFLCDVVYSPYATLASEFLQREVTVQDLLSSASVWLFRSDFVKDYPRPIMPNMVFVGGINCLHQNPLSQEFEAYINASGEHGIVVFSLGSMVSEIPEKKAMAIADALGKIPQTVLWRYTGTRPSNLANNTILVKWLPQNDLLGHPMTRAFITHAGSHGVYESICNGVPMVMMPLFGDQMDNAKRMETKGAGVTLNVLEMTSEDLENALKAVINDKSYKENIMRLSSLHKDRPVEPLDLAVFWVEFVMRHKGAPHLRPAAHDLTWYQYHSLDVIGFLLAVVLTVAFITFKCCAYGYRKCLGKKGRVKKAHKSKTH
Procedure: as §1, §2, §3, §4

UGT2B7 = target: T7, UGT2B7 (Homo sapiens, UniProt P16662); details: No BSA; expression level-normalized; estradiols: 17-glucuronide formation
T7 sequence (P16662 24-529): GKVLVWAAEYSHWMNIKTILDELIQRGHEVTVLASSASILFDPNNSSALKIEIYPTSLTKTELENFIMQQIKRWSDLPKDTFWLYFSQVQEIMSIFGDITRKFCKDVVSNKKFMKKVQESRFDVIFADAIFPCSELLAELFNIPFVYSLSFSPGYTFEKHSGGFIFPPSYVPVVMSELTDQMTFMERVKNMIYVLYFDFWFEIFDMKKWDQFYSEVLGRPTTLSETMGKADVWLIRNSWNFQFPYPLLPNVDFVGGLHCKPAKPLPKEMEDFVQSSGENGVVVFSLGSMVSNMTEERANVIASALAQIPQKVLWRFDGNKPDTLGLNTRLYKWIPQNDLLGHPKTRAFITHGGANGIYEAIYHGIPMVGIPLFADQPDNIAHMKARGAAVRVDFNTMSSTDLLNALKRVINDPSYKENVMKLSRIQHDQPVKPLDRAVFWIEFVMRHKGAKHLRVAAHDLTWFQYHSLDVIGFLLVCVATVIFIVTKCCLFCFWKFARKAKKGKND
Procedure: as §5, §2
(§6) The glucuronidation rates by recombinant enzymes are reported as “expression normalized” values. […] The dot blot assays were performed in triplicate and the average value was used for normalization. […] The “expression normalized” glucuronidation rates were calculated by dividing the measured glucuronidation rates with relative expression level of the each given recombinant UGT.
as §4

UGT1A1 [4] = target: T6, UGT1A1; details: read-out: No BSA: K m or S 50 ± S.E. (95% CI)
Procedure: as §1, §2
The HPLC system consisted of an Agilent 1100 series degasser, binary pump, 100-vial autosampler, thermostated column compartment, multiple wavelengths UV detector, and fluorescence detector (Agilent Technologies, Palo Alto, CA, USA). […] The resulting chromatograms were analyzed with Agilent ChemStation software (rev. B.01.01) on Windows XP Professional. […] The resulting chromatograms were analyzed with Empower 2 software (Build 2154, Waters, Milford, MA, USA) on Windows XP Professional operating system. The limits of detection and quantification were estimated based on signal-to-noise ratios of 3 and 10, respectively. […]

[5] = Drug binding to control insect cell membranes by RED; details: 0.2 mg/mL total protein in the membrane
UGT2B4 = target: T8, UGT2B4 (Homo sapiens, UniProt P06133); test: UGT2B4-catalyzed glucuronidation, enzyme kinetics
T8 sequence (P06133 24-528): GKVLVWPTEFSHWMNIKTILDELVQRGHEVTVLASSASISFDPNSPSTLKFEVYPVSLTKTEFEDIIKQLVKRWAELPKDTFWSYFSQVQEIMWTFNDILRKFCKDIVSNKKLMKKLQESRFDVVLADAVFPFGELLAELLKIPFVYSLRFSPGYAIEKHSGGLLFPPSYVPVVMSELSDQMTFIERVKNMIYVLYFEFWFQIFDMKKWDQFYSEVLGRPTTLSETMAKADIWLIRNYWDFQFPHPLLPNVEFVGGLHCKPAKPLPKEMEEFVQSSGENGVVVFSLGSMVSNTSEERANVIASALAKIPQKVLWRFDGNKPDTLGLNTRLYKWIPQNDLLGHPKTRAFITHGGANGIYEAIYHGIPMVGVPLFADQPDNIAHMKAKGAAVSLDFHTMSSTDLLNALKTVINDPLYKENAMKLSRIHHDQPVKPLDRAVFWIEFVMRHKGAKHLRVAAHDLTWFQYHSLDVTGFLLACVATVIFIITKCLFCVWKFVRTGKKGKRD
Procedure: as §5, §2, §6, §4

BSA, sequence (P02769 25-607): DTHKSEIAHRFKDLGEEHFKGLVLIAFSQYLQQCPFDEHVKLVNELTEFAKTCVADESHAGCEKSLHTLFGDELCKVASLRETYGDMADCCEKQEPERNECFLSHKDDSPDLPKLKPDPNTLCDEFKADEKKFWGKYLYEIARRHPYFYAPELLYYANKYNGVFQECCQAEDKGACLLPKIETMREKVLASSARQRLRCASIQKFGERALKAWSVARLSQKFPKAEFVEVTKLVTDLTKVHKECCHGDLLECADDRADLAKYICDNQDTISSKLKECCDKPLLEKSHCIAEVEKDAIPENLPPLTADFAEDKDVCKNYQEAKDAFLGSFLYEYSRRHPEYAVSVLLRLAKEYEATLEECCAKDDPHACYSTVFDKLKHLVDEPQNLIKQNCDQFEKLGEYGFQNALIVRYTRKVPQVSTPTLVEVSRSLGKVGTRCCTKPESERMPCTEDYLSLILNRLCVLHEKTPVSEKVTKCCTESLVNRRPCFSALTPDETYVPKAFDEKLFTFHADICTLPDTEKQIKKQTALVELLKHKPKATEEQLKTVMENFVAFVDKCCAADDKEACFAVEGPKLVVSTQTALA

Compound: bovine serum albumin [BSA]
decrease of K m values on inclusion of 0.1% BSA (UGT2A1): up to 20 fold
effect of 2% BSA instead of 0.1% BSA [1]: very little effect
V max increase on inclusion of 0.1% BSA (UGT1A7; 0.1% BSA vs no BSA): up to 7 fold

Compound: 17β-estradiol
Km (UGT1A1 [4]): 7.84 µM

Now from value to compound, other results behind:

V max ± S.E. (UGT1A6): 7.0±0.8(5.3–8.7) nmol•min^–1•mg^–1
nonspecific binding to the RED device [2]: ≤ 10%
fraction unbound at 6 h (BSA): 0.84 to 0.97
Compound: Oc1ccc2cc[nH]c2c1 [6-Hydroxyindole, 6-hydroxyindole]

V max ± S.E. (UGT1A6): 5.2±0.3(4.5–6.0) nmol•min^–1•mg^–1
V max ± S.E. (UGT1A10): 8.0±0.3(7.3–8.7) nmol•min^–1•mg^–1
V max ± S.E. (UGT2B15; No BSA, measured rates, not expression normalized, 17α-estradiol: 3-glucuronide formation): 0.83±0.01(0.82–0.85) nmol•min^–1•mg^–1
V max ± S.E. (UGT1A7; No BSA, expression level-normalized): 0.25±0.01(0.22–0.28) nmol•min^–1•mg^–1
V max ± S.E. (UGT1A1 [3]): 0.11±0.004(0.11–0.12) nmol•min^–1•mg^–1
V max ± S.E. (UGT2B7): 0.28±0.03(0.22–0.34) nmol•min^–1•mg^–1
Compound: Cc1cc(=O)oc2cc(O)ccc12 [4-MU, 4-Methylumbelliferone]

binding to control insect cell membrane [5]: negligible
K m or S 50 ± S.E. (UGT2B4): 1.60±0.23 ^***(1.12–2.08) µM
K m or S 50 ± S.E. (UGT2B15; 0.1% BSA, substrate concentration corrected for binding to BSA, 17α-estradiol: 3-glucuronide formation): 5.58±0.56 ^***(4.24–6.74) µM
fraction unbound at 8 h (BSA): 0.49 ± 0.01
Compound: C[C@]12CC[C@@H]3c4ccc(O)cc4CC[C@H]3[C@@H]1CC[C@H]2O [17α-Estradiol, 17α-estradiol]
V max ± S.E. (UGT2B4): 0.053±0.002(0.048–0.058) nmol•min^–1•mg^–1
V max ± S.E. (UGT2B15): 0.069±0.003(0.062–0.076) nmol•min^–1•mg^–1
